According to a melting point compilation (Tetko et al.; mined from patent text by program, amines drawn as free bases though some values may be those of a salt):

Structure (SMILES)	melting point
CCOc1cc(N)c([N+](=O)[O-])cc1NCCO	157 to 158 °C
COc1ccc(/C=C/c2nc3c(c(=O)n(C)c(=O)n3C)n2C)c(OC)c1C	253 to 254 °C
Cn1cc(CN2CCC[C@H]2CO)c2ccccc21	46 to 48 °C
Cc1c(Sc2ccc(Cl)cc2)nn(-c2cccc(Cl)c2)c(=O)c1C#N	150 to 151 °C
FC(F)(F)c1cccc(C2=CCN(CCc3ccc4[nH]ccc4c3)CC2)c1	122 to 123 °C
CCCc1c(Cl)c2cc(Br)ccc2oc1=O	96 to 97 °C
CCSc1cc2c(cc1SCC)C(=O)c1c(c(Cl)c3cc(SCC)c(SCC)cc3c1Cl)C2=O	> 260 °C
CCCCCCCCCCCC#Cc1ccoc1C=O	56 to 57 °C
O=c1c(C2=CS(=O)(=O)c3cc(NS(=O)(=O)C4CC4)ccc3N2)c(O)c2cc(F)ccc2n1CCC1CC1	145 to 155 °C
CC(C)n1c(C=O)c(-c2ccc(F)cc2)c(-c2ccc(F)cc2)c1C(=O)NCc1ccc(S(C)(=O)=O)cc1	203 to 204 °C
CC(=O)NC[C@H]1CN(c2ccc(C(=O)c3cnc4c(Cl)cc(Cl)cn34)cc2)C(=O)O1	228 to 229 °C
CC(=O)c1cc2c(c(CCl)c1O)CCCC2	88 to 90 °C
CC(=O)c1cccc2c1Oc1c(C(C)=O)cccc1N2[Si](C)(C)C(C)(C)C	146 °C
CSc1ccc2c(c1)Cc1ccc(C=O)cc1O2	122 to 123 °C
COc1cc(Cc2nc(NC(C)(C)C)c3c(C)c(C#N)sc3n2)cc(OC)c1OC	146 to 148 °C
CC(C)c1cc(C(=O)O)oc1C(C)C	105 to 106 °C
Cn1c2ccc([N+](=O)[O-])cc2c2cc(C(=O)N3CCOCC3)sc21	250 to 252 °C
CC(=O)Nc1cc(C2=NOC(c3cc(Cl)cc(Cl)c3)(C(F)(F)F)C2)ccc1-n1cncn1 (stereo not drawn)	230 to 233 °C
CCOC(=O)C1(O)C=CN=c2ccc3c(c21)NCN=3 (stereo not drawn)	315 to 316 °C
CC1(C)OC(C=Cc2cc3ccccc3s2)=CC1=O	104 °C
CCC1(O)CC(=O)OCc2c1cc1n(c2=O)Cc2cc3cccc(F)c3nc2-1 (stereo not drawn)	> 250 °C
CC(=NO)C(C)(C)NCC(CNC(C)(C)C(C)=NO)CC(O)CC1([N+](=O)[O-])N=CC=N1 (stereo not drawn)	185 to 187 °C
COc1cc2c(cc1OC)-c1c(O)c(OC)cc3c1C(C2)CN(C(=O)C(F)(F)F)C3 (stereo not drawn)	210 to 217 °C
COc1ccc(-c2[nH]c3cn[nH]c(=O)c3c2Cl)cc1OC1CCC1	285 to 287 °C
CNC(=O)COc1ccc(C(=O)CN2CCN(c3ccncc3)CC2)cc1	169 to 171 °C
NS(=O)(=O)c1ccc(-c2cnn(-c3ccc(F)cc3)c(=O)c2-c2ccc(F)cc2)cc1F	222 to 224 °C

Now from value to compound:

melting point	Structure (SMILES)
153 to 155 °C	O=C(O)c1ccc(C(c2ccccc2)(C(F)(F)F)C(F)(F)F)cc1
180 to 181 °C	N=C(NCCOc1cccc2[nH]c3ccccc3c12)c1cccs1
130 °C	CCCc1ncc(CN2CCN(c3ccccc3OC)CC2)c(N)n1
217 to 218 °C	NS(=O)(=O)c1ccc(CCNC(=O)c2nc(-c3ccccc3)no2)cc1
148 to 153 °C	Cc1ccc2c(NCc3ccccc3)c3c(nc2c1)CCCC3O (stereo not drawn)
115 to 117 °C	O=c1ccc(-c2c(-c3ccccc3)nn3ccccc23)nn1C1CCCCC1
124 to 126 °C	Cc1ccc(S(=O)(=O)NCCCCOc2ccc(-n3cccc3)cc2)cc1
180 to 182 °C	Cc1cc2c(-c3ccccc3)nc(N3CCN(CC(O)c4ccc(F)cc4)CC3)nc2s1 (stereo not drawn)
158 to 159 °C	CCCn1nc2c(N)nc3ccccc3c2c1CC(C)(C)NC(=O)CC
138 to 139 °C	COc1ccc(Cc2cc3cccc(-c4cccc(C(=O)NCCO)c4)c3s2)cn1
205 to 215 °C	COc1cccc(OC)c1C(=O)NC(=O)Nc1ccc(-c2ccc(Cl)cc2)cn1
189 to 190 °C	N#Cc1cc(-c2nc3cncnc3s2)ccc1Oc1cccc(F)c1
